Experimental data from patent US9624228B2, “Inhibitors of ERK and methods of use” (KURA ONCOLOGY, INC., priority 2013, dated 2017).

molecular target: ERK2 enzyme (Homo sapiens (Human), UniProt P28482); test: Inhibition assay of ERK (Z'-LYTE kinase assay, Ser/Thr 3 peptide substrate); format: biochemical; settings: In vitro ERK2 enzyme, 100 μM ATP
Protocol: The inhibition of ERK activity by the compounds disclosed herein was determined using the Z′-LYTE kinase assay kit (Life Technologies) with a Ser/Thr 3 peptide substrate (Life Technologies) according to manufacturers' instructions. […] The IC50 values for the compounds were determined with 3-fold serial dilutions in duplicate. […] The final DMSO concentration in the assay was 1%. Final reaction volume was 20 μL/well in 384-well plates. Kinase reactions were conducted or 1 hour followed by the assay development reaction (1 hour) in a 20 ul/well in a 384 well plate format.

Chain of ERK2 enzyme (P28482 whole entry): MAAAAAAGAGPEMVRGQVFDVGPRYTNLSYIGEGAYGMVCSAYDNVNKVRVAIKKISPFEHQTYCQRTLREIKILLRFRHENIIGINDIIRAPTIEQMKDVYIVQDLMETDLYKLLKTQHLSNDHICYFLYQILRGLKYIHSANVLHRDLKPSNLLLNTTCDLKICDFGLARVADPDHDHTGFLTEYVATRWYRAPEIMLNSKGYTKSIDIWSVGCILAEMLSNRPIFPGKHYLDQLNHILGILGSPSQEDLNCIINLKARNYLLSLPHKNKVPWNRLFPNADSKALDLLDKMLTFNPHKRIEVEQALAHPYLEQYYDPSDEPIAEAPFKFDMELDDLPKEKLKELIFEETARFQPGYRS

SMILES	IC50
Cc1cc(-c2n[nH]c3cc4c(cc23)CN(C2CCOCC2)C(=O)N4)ccn1 [Compound 44]	< 0.05 µM
COCCOCCN1Cc2cc3c(-c4ccnc(C)c4)n[nH]c3cc2NC1=O [Compound 45]	< 0.05 µM
Cc1cc(-c2n[nH]c3cc4c(cc23)CN(CCN(C)C)C(=O)N4)ccn1 [Compound 46]	0.05 to 0.25 µM
Cc1cc(-c2n[nH]c3cc4c(cc23)CN(Cc2cscn2)C(=O)N4)ccn1 [Compound 47]	< 0.05 µM
O=C1Nc2cc3[nH]nc(-c4cn[nH]c4)c3cc2CN1Cc1ccc(F)c(Cl)c1 [Compound 48]	< 0.05 µM
Cc1cc(-c2n[nH]c3cc4c(cc23)CN([C@@H]2CCCOC2)C(=O)N4)ccn1 [Compound 49]	< 0.05 µM
Cc1cc(-c2n[nH]c3cc4c(cc23)CN(CCc2cccc(Cl)c2)C(=O)N4)ccn1 [Compound 50]	< 0.05 µM
Cc1cc(-c2n[nH]c3cc4c(cc23)CN(CCN2CCOCC2)C(=O)N4)ccn1 [Compound 51]	< 0.05 µM
COCCN1Cc2cc3c(-c4ccnc(C)c4)n[nH]c3cc2NC1=O [Compound 52]	< 0.05 µM
Cc1cc(-c2n[nH]c3cc4c(cc23)CN(C(C)CC(C)C)C(=O)N4)ccn1 (centres unmarked) [Compound 53]	< 0.05 µM
Cc1cc(-c2n[nH]c3cc4c(cc23)CN([C@H](C)CO)C(=O)N4)ccn1 [Compound 54]	< 0.05 µM
Cc1cc(-c2n[nH]c3cc4c(cc23)CN(Cc2cccc(C#N)c2)C(=O)N4)ccn1 [Compound 55]	< 0.05 µM
Cc1cc(-c2n[nH]c3cc4c(cc23)CN(Cc2nccs2)C(=O)N4)ccn1 [Compound 56]	< 0.05 µM
O=C1Nc2cc3[nH]nc(-c4cccnc4)c3cc2CN1Cc1cccc(Cl)c1 [Compound 57]	< 0.05 µM
Cc1ccc(-c2n[nH]c3cc4c(cc23)CN(Cc2cccc(Cl)c2)C(=O)N4)cn1 [Compound 58]	< 0.05 µM
O=C1Nc2cc3[nH]nc(-c4ccc5nncn5c4)c3cc2CN1Cc1cccc(Cl)c1 [Compound 59]	< 0.05 µM
O=C1Nc2cc3[nH]nc(-c4cn[nH]c4)c3cc2CN1Cc1cccc(Cl)c1 [Compound 60]	< 0.05 µM
O=C1Nc2cc3[nH]nc(-c4ccc(=O)[nH]c4)c3cc2CN1Cc1cccc(Cl)c1 [Compound 61]	< 0.05 µM
Cc1cc(-c2n[nH]c3cc4c(cc23)CN([C@@H]2CCCN(CC3CC3)C2)C(=O)N4)ccn1 [Compound 62]	0.05 to 0.25 µM
Cc1cc(-c2n[nH]c3cc4c(cc23)CN([C@@H]2CCCN(Cc3ccccc3)C2)C(=O)N4)ccn1 [Compound 63]	< 0.05 µM
CCC(c1ccccc1)c1cc2cc3c(-c4ccnc(C)c4)n[nH]c3cc2[nH]c1=O (centres unmarked) [Compound 64]	< 0.05 µM

Results, then the compound that gave them:

IC50	SMILES
< 0.05 µM	Cc1cc(-c2n[nH]c3cc4c(cc23)CN(Cc2ccc(CC#N)cc2)C(=O)N4)ccn1 [Compound 65]
0.25 to 1 µM	Cc1cc(-c2n[nH]c3cc4c(cc23)CN(CCc2ccc(F)cc2)CC(=O)N4)ccn1 [Compound 67]
< 0.05 µM	COc1ncc(-c2n[nH]c3cc4c(cc23)CN(Cc2cccc(Cl)c2)C(=O)N4)cn1 [Compound 68]
0.05 to 0.25 µM	Cc1cc(-c2n[nH]c3cc4c(cc23)CN(C2CCN(CC3CC3)CC2)C(=O)N4)ccn1 [Compound 69]
< 0.05 µM	Cc1cc(-c2n[nH]c3cc4c(cc23)CN(C2CCN(Cc3ccccc3)CC2)C(=O)N4)ccn1 [Compound 70]
< 0.05 µM	COc1ncc(-c2n[nH]c3cc4c(cc23)CN([C@H](C)c2cccc(Cl)c2)C(=O)N4)cn1 [Compound 71]
< 0.05 µM	COc1ncc(-c2n[nH]c3cc4c(cc23)CN(Cc2ccc(F)cc2)C(=O)N4)cn1 [Compound 72]
> 1 µM	Cc1cc(-c2n[nH]c3cc4[nH]c(=O)c(C(C)Cc5ccc(F)cc5)cc4cc23)ccn1 (centres unmarked) [Compound 73]
0.05 to 0.25 µM	COc1ccc(-c2n[nH]c3cc4c(cc23)CN([C@H](C)c2cccc(Cl)c2)C(=O)N4)cn1 [Compound 74]
< 0.05 µM	COc1ccc(-c2n[nH]c3cc4c(cc23)CN(Cc2cccc(Cl)c2)C(=O)N4)cn1 [Compound 75]
< 0.05 µM	COc1ccc(-c2n[nH]c3cc4c(cc23)CN(Cc2ccc(F)cc2)C(=O)N4)cn1 [Compound 76]
